Publication PMC10122656, “Siglec-6 mediates the uptake of extracellular vesicles through a noncanonical glycolipid binding pocket” (Nature Communications, 2023)
Several values for one entry are separate records, joined by “and”; a condition that tells them apart may be missing. Equal entries are not always repeated.

How the values were obtained:
Assay in all cases: Cell assay (liposome/EV binding, flow cytometry);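 on liposome binding, fluorescence signal (replicates): AF647 fluorescence intensity from 0.1 mol% AF647–PEG45–DSPE in liposomes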
[1] = target: T1, CHO cells expressing Siglec-6 mutants (C46A, C172A, R to A mutants, F93A, L95A, G175M) (Homo sapiens, UniProt O43699, C46A); format: cell-based; details: sheet Figure S26a, 3% GM3-DAG liposomes, C46A
T1 construct: These new CHO cell lines are the full-length versions of the Siglecs; expressed in transfected cells
T1 sequence (O43699 27-453 C46A): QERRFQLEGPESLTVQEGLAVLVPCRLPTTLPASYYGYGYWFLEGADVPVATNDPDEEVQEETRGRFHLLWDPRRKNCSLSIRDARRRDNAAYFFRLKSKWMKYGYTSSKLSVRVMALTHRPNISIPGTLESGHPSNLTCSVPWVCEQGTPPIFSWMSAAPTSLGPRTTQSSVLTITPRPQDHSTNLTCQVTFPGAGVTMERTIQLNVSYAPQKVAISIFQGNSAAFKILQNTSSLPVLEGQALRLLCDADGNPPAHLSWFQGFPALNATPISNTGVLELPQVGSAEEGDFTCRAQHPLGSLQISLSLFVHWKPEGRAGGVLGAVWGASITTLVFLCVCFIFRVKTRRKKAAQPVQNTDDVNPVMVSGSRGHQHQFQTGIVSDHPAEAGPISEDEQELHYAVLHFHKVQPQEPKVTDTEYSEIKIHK
Protocol: (§1) Mutations were introduced into each Siglec via gene overlap extension PCR mutagenesis (primers were ordered through IDT). Mutagenesis primers can be found in Supplementary Tables 2 and 3 for the critical arginine mutants of the entire Siglec family and the additional Siglec-6 mutants respectively.
(§2) 200,000 cells/well were plated into a 96-well U-bottom microplate and centrifuged at 300 × g for 5 min. The cells were then resuspended in 50 µL of 50 µM liposome/50 µg/mL (protein concentration) of EV solution in DMEM F12 5% FBS and incubated at 37 °C for 30 min. Excess liposomes were then removed via centrifuged at 300 × g for 5 min followed by washing the cells with FACS solution. The cells were then resuspended in (1:250 V/V) anti-Siglec-flow buffer (1% V/V FBS, 500 µM, EDTA Hank’s Balanced Salt Solution pH 7.4), solution and left to rest on ice for 30 min. The cells were then centrifuged again at 300 × g for 5 min and the cells were resuspended in FACS buffer solution and were then ready for analysis by flow cytometry. Information regarding antibody clone, catalog number supplier, label isotype, and dilution can be found in Supplementary Table 6. The Siglec-positive cells were gated on for liposome-binding analysis (Supplementary Fig. 1b).
(§3) Flow cytometry measurements were collected on a 5-laser Fortessa X-20 (BD Bioscience). All the resulting data were analyzed using FlowJo (10.5.3) software (BD Biosciences).

[2] = target: T2, CHO cells expressing Siglec-6 mutants (C46A, C172A, R to A mutants, F93A, L95A, G175M) (Homo sapiens, UniProt O43699, E88A); format: cell-based; details: sheet Figure S28b, 3% GM3-DAG liposomes, E88A
T2 construct: These new CHO cell lines are the full-length versions of the Siglecs; expressed in transfected cells
T2 sequence (O43699 27-453 E88A): as the sequence (O43699 27-453 C46A) above, with A20C, E62A counted along it
Protocol: as §1, §2, §3

[3] = target: T3, CHO cells expressing Siglec-6 mutants (C46A, C172A, R to A mutants, F93A, L95A, G175M) (Homo sapiens, UniProt O43699, F93A); format: cell-based; details: sheet Figure S28b, 3% GM3-DAG liposomes, F93A
T3 construct: These new CHO cell lines are the full-length versions of the Siglecs; expressed in transfected cells
T3 sequence (O43699 27-453 F93A): as the sequence (O43699 27-453 C46A) above, with A20C, F67A counted along it
Protocol: as §1, §2, §3

[4] = target: T4, CHO cells expressing Siglec-6 mutants (C46A, C172A, R to A mutants, F93A, L95A, G175M) (Homo sapiens, UniProt O43699, G175M); format: cell-based; details: sheet Figure S28b, 3% GM3-DAG liposomes, G175M
T4 construct: These new CHO cell lines are the full-length versions of the Siglecs; expressed in transfected cells
T4 sequence (O43699 27-453 G175M): as the sequence (O43699 27-453 C46A) above, with A20C, G149M counted along it
Protocol: as §1, §2, §3

[5] = target: T5, CHO cells expressing Siglec-6 mutants (C46A, C172A, R to A mutants, F93A, L95A, G175M) (Homo sapiens, UniProt O43699, L95A); format: cell-based; details: sheet Figure S28b, 3% GM3-DAG liposomes, L95A
T5 construct: These new CHO cell lines are the full-length versions of the Siglecs; expressed in transfected cells
T5 sequence (O43699 27-453 L95A): as the sequence (O43699 27-453 C46A) above, with A20C, L69A counted along it
Protocol: as §1, §2, §3

[6] = target: T6, CHO cells expressing Siglec-6 mutants (C46A, C172A, R to A mutants, F93A, L95A, G175M) (Homo sapiens, UniProt O43699, Q174A); format: cell-based; details: sheet Figure S28b, 3% GM3-DAG liposomes, Q174A
T6 construct: These new CHO cell lines are the full-length versions of the Siglecs; expressed in transfected cells
T6 sequence (O43699 27-453 Q174A): as the sequence (O43699 27-453 C46A) above, with A20C, Q148A counted along it
Protocol: as §1, §2, §3

[7] = target: T7, CHO cells expressing Siglec-6 mutants (C46A, C172A, R to A mutants, F93A, L95A, G175M) (Homo sapiens, UniProt O43699, R100A); format: cell-based; details: sheet Figure S26a, 3% GM3-DAG liposomes, R100A
T7 construct: These new CHO cell lines are the full-length versions of the Siglecs; expressed in transfected cells
T7 sequence (O43699 27-453 R100A): as the sequence (O43699 27-453 C46A) above, with A20C, R74A counted along it
Protocol: as §1, §2, §3

[8] = target: T8, CHO cells expressing Siglec-6 mutants (C46A, C172A, R to A mutants, F93A, L95A, G175M) (Homo sapiens, UniProt O43699, R101A); format: cell-based; details: sheet Figure S26a, 3% GM3-DAG liposomes, R101A
T8 construct: These new CHO cell lines are the full-length versions of the Siglecs; expressed in transfected cells
T8 sequence (O43699 27-453 R101A): as the sequence (O43699 27-453 C46A) above, with A20C, R75A counted along it
Protocol: as §1, §2, §3

[9] = target: T9, CHO cells expressing Siglec-6 mutants (C46A, C172A, R to A mutants, F93A, L95A, G175M) (Homo sapiens, UniProt O43699, R109A); format: cell-based; details: sheet Figure S26a, 3% GM3-DAG liposomes, R109A
T9 construct: These new CHO cell lines are the full-length versions of the Siglecs; expressed in transfected cells
T9 sequence (O43699 27-453 R109A): as the sequence (O43699 27-453 C46A) above, with A20C, R83A counted along it
Protocol: as §1, §2, §3

[10] = target: T10, CHO cells expressing Siglec-6 mutants (C46A, C172A, R to A mutants, F93A, L95A, G175M) (Homo sapiens, UniProt O43699, R112A); format: cell-based; details: sheet Figure S26a, 3% GM3-DAG liposomes, R112A
T10 construct: These new CHO cell lines are the full-length versions of the Siglecs; expressed in transfected cells
T10 sequence (O43699 27-453 R112A): as the sequence (O43699 27-453 C46A) above, with A20C, R86A counted along it
Protocol: as §1, §2, §3

[11] = target: T11, CHO cells expressing Siglec-6 mutants (C46A, C172A, R to A mutants, F93A, L95A, G175M) (Homo sapiens, UniProt O43699, R113A); format: cell-based; details: sheet Figure S26a, 3% GM3-DAG liposomes, R113A
T11 construct: These new CHO cell lines are the full-length versions of the Siglecs; expressed in transfected cells
T11 sequence (O43699 27-453 R113A): as the sequence (O43699 27-453 C46A) above, with A20C, R87A counted along it
Protocol: as §1, §2, §3

[12] = target: T12, CHO cells expressing Siglec-6 mutants (C46A, C172A, R to A mutants, F93A, L95A, G175M) (Homo sapiens, UniProt O43699, R114A); format: cell-based; details: sheet Figure S26a, 3% GM3-DAG liposomes, R114A
T12 construct: These new CHO cell lines are the full-length versions of the Siglecs; expressed in transfected cells
T12 sequence (O43699 27-453 R114A): as the sequence (O43699 27-453 C46A) above, with A20C, R88A counted along it
Protocol: as §1, §2, §3

[13] = target: T13, CHO cells expressing Siglec-6 mutants (C46A, C172A, R to A mutants, F93A, L95A, G175M) (Homo sapiens, UniProt O43699, R147A); format: cell-based; details: sheet Figure S26a, 3% GM3-DAG liposomes, R147A
T13 construct: These new CHO cell lines are the full-length versions of the Siglecs; expressed in transfected cells
T13 sequence (O43699 27-453 R147A): as the sequence (O43699 27-453 C46A) above, with A20C, R121A counted along it
Protocol: as §1, §2, §3

[14] = target: T14, CHO cells expressing Siglec-6 mutants (C46A, C172A, R to A mutants, F93A, L95A, G175M) (Homo sapiens, UniProt O43699, R90A); format: cell-based; details: sheet Figure S26a, 3% GM3-DAG liposomes, R90A
T14 construct: These new CHO cell lines are the full-length versions of the Siglecs; expressed in transfected cells
T14 sequence (O43699 27-453 R90A): as the sequence (O43699 27-453 C46A) above, with A20C, R64A counted along it
Protocol: as §1, §2, §3

[15] = target: T15, CHO cells expressing Siglec-6 mutants (C46A, C172A, R to A mutants, F93A, L95A, G175M) (Homo sapiens, UniProt O43699, R92A); format: cell-based; details: sheet Figure S26a, 3% GM3-DAG liposomes, R92A
T15 construct: These new CHO cell lines are the full-length versions of the Siglecs; expressed in transfected cells
T15 sequence (O43699 27-453 R92A): as the sequence (O43699 27-453 C46A) above, with A20C, R66A counted along it
Protocol: as §1, §2, §3

[16] = test system: CHO cells expressing Siglec-6 mutants (C46A, C172A, R to A mutants, F93A, L95A, G175M); format: cell-based, human; details: cell assay
Protocol: as §1, §2, §3

With `CCCCCCCCCCCCCCCCOCC(COCCCCCCCCCCCCCCCC)OCc1cn(CCO[C@@H]2O[C@H](CO)[C@@H](O[C@@H]3O[C@H](CO)[C@H](O)[C@H](O[C@]4(C(=O)O)C[C@H](O)[C@@H](NC(C)=O)[C@H]([C@H](O)[C@H](O)CO)O4)[C@H]3O)[C@H](O)[C@H]2O)nn1` [GM3-DAG] as the compound, how does the “liposome binding, fluorescence signal (replicates)” value (“liposome binding” for short) [1] read?
The value was 789 and 784 and 873 and 937.

What about the “liposome binding” value [2] of the same compound?
The value was 2063 and 2173 and 2053.

And the “liposome binding” value [3]?
The value was 1045 and 1034 and 1148.

What about the “liposome binding” value [4] of the same compound?
The value was 928 and 1026 and 962 and 868.

And the “liposome binding” value [5]?
The value was 497 and 522 and 557 and 567.

And the “liposome binding” value [6]?
The value was 1364 and 1584 and 1412.

And the “liposome binding” value [7]?
The value was 2485 and 2181 and 2573 and 2894.

What about the “liposome binding” value [8] of the same compound?
The value was 5191 and 3671 and 4272 and 5125.

What about the “liposome binding” value [9] of the same compound?
The value was 3678 and 3427 and 3246 and 4185.

And the “liposome binding” value [10]?
Its value is 4575 and 4566 and 3393 and 4882.

What about the “liposome binding” value [11] of the same compound?
Its value is 4924 and 3926 and 3532 and 5592.

What about the “liposome binding” value [12] of the same compound?
Its value is 3286 and 2523 and 2193 and 4407.

What about the “liposome binding” value [13] of the same compound?
The value was 10179 and 9364 and 9449 and 10723.

What about the “liposome binding” value [14] of the same compound?
The value was 6321 and 6067 and 6474 and 6517.

What about the “liposome binding” value [15] of the same compound?
The value was 242 and 228 and 244 and 252.

How did the “5 nGLL binding to C46A and C172A mutants of Siglec-6” value [16] turn out when `CCCCCCCCCCCCCCCCOCC(COCCCCCCCCCCCCCCCC)OCc1cn(CCO[C@@H]2O[C@H](CO)[C@@H](O[C@@H]3O[C@H](CO)[C@H](O)[C@H](O[C@]4(C(=O)O)C[C@H](O)[C@@H](NC(C)=O)[C@H]([C@H](O)[C@H](O)CO)O4)[C@H]3O)[C@H](O)[C@H]2O)nn1` [nGL 5] was run?
The value was “did not recognize”.

What about the “5 nGLL binding to F93A, L95A and G175M Siglec-6 mutants” value [16] of the same compound?
Its value is “significantly decreased binding”.

And the “5 nGLL binding to R109A and R114A Siglec-6 mutants” value [16]?
Its value is “modest reduction in binding”.

And the “5 nGLL binding to R92A and R100A Siglec-6 mutants” value ([16]; both expressed at low levels)?
The value was “more pronounced reduction in binding”.
